Where a SMILES comes first, the peptide text is derived from it. [ ]: non-standard residue; d: D form. Cha = N[C@@H](CC1CCCCC1)C(=O)O; 4Abz = Nc1ccc(C(=O)O)cc1; βAla = NCCC(=O)O
biological target: T1, Proteinase-activated receptor 1 (Homo sapiens) (UniProt P25116); test: Evaluated for activation of human platelet aggregation (gel-filtered platelets) induced by alpha thrombin at 50 uM; type: functional
T1 sequence (whole entry): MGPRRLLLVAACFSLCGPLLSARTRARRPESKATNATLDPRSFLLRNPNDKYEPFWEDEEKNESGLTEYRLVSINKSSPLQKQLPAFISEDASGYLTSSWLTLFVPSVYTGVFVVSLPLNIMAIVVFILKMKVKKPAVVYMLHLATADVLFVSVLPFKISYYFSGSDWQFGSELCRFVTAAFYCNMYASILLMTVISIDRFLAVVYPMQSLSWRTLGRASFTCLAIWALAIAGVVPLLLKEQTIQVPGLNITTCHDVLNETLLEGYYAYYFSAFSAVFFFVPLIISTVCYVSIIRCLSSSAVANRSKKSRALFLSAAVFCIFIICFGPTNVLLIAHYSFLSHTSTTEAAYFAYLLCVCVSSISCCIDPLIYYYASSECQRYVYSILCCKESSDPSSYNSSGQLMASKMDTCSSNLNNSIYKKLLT

| Structure (SMILES) | percent activation of platelet aggregation [%] |
| --- | --- |
| NCCC(=O)N[C@@H](CC1CCCCC1)C(=O)N[C@@H](CCCN=C(N)N)C(=O)N[C@@H](Cc1ccccc1)C(N)=O (H-[βAla][Cha]RF-NH2) | 30 |
| N=C(N)NCCC[C@H](NC(=O)[C@H](CC1CCCCC1)NC(=O)/C=C/c1ccccc1)C(=O)N[C@@H](Cc1ccccc1)C(N)=O | 20 |
| N=C(N)NCCC[C@H](NC(=O)[C@H](CC1CCCCC1)NC(=O)c1ccc(N)cc1)C(=O)N[C@@H](Cc1ccccc1)C(N)=O (H-[4Abz][Cha]RF-NH2) | 40 |
| N=C(N)NCCC[C@H](NC(=O)[C@H](CC1CCCCC1)NC(=O)C1=COc2ccccc2O1)C(=O)N[C@@H](Cc1ccccc1)C(N)=O | < 20 |
| N=C(N)NCCC[C@H](NC(=O)[C@H](CC1CCCCC1)NC(=O)c1ccncc1)C(=O)N[C@@H](Cc1ccccc1)C(N)=O | 26 |
| N=C(N)NCCC[C@H](NC(=O)[C@H](CC1CCCCC1)NC(=O)C1C=CC=NC1=O)C(=O)N[C@@H](Cc1ccccc1)C(N)=O (stereo partly specified) | 26 |
| N=C(N)NCCC[C@H](NC(=O)[C@H](CC1CCCCC1)NC(=O)c1ccoc1)C(=O)N[C@@H](Cc1ccccc1)C(N)=O | 38 |

The remaining lines, values ahead:

| percent activation of platelet aggregation [%] | Structure (SMILES) |
| --- | --- |
| < 20 | C[C@H](NC(=O)[C@H](CC1CCCCC1)NC(=O)c1n[nH]c(N)n1)C(=O)N[C@@H](Cc1ccccc1)C(N)=O |
| 32 | N=C(N)NCCC[C@H](NC(=O)[C@H](CC1CCCCC1)NC(=O)c1cnc(Cl)c(Cl)c1)C(=O)N[C@@H](Cc1ccccc1)C(N)=O |
| 55 | N=C(N)NCCC[C@H](NC(=O)[C@H](CC1CCCCC1)NC(=O)c1ccc[nH]1)C(=O)N[C@@H](Cc1ccccc1)C(N)=O |
| 56 | N=C(N)NCCC[C@H](NC(=O)[C@H](CC1CCCCC1)NC(=O)c1ccc(-c2ccccc2)cc1)C(=O)N[C@@H](Cc1ccccc1)C(N)=O |
| < 20 | N=C(N)NCCC[C@H](NC(=O)[C@H](CC1CCCCC1)NC(=O)c1n[nH]c(N)n1)C(=O)N[C@@H](Cc1c[nH]cn1)C(N)=O |
| 21 | N=C(N)NCCC[C@H](NC(=O)[C@H](CC1CCCCC1)NC(=O)c1cc2ccccc2[nH]1)C(=O)N[C@@H](Cc1ccccc1)C(N)=O |
| < 20 | N=C(N)NCCC[C@H](NC(=O)[C@H](CC1CCCCC1)NC(=O)c1cccnc1Cl)C(=O)N[C@@H](Cc1ccccc1)C(N)=O |
| < 20 | C[C@H](NC(=O)c1n[nH]c(N)n1)C(=O)N[C@@H](CCCN=C(N)N)C(=O)N[C@@H](Cc1ccccc1)C(N)=O |

biological target: T2, Proteinase-activated receptor 1 (Homo sapiens, UniProt P25116); test: Inhibition of [3H]S-(p-F-Phe)-Har-L-Har-KY-NH2 binding to Thrombin receptor 1 (PAR-1) on membranes from CHRF cells; type: cell membranes
T2 sequence (P25116 whole entry): T1 sequence (whole entry)

| Structure (SMILES) | IC50 [µM] |
| --- | --- |
| N=C(N)NCCC[C@H](NC(=O)[C@H](CC1CCCCC1)NC(=O)c1n[nH]c(NC(=O)/C=C/c2ccccc2)n1)C(=O)N[C@@H](Cc1ccccc1)C(N)=O | 6.4 |
| N=C(N)NCCC[C@H](NC(=O)[C@H](CC1CCCCC1)NC(=O)c1n[nH]c(NC(=O)/C=C/c2ccc(F)cc2)n1)C(=O)N[C@@H](Cc1ccccc1)C(N)=O | 1.2 |
| COc1ccc(/C=C/C(=O)Nc2n[nH]c(C(=O)N[C@@H](CC3CCCCC3)C(=O)N[C@@H](CCCN=C(N)N)C(=O)N[C@@H](Cc3ccccc3)C(N)=O)n2)cc1 | 4 |
| N=C(N)NCCC[C@H](NC(=O)[C@H](CC1CCCCC1)NC(=O)c1n[nH]c(NC(=O)/C=C/c2cccc(Cl)c2)n1)C(=O)N[C@@H](Cc1ccccc1)C(N)=O | 15 |

Further lines, results first:

| IC50 [µM] | Structure (SMILES) |
| --- | --- |
| 30 | N=C(N)NCCC[C@H](NC(=O)[C@H](CC1CCCCC1)NC(=O)c1n[nH]c(NC(=O)/C=C/c2ccc(C(F)(F)F)cc2)n1)C(=O)N[C@@H](Cc1ccccc1)C(N)=O |
| 2.6 | N=C(N)NCCC[C@H](NC(=O)[C@H](CC1CCCCC1)NC(=O)c1cnc(Cl)c(Cl)c1)C(=O)N[C@@H](Cc1ccccc1)C(N)=O |
| 1.4 | N=C(N)NCCC[C@H](NC(=O)[C@H](CC1CCCCC1)NC(=O)c1n[nH]c(NC(=O)/C=C/c2ccccc2Cl)n1)C(=O)N[C@@H](Cc1ccccc1)C(N)=O |
| 1.4 | N=C(N)NCCC[C@H](NC(=O)[C@H](CC1CCCCC1)NC(=O)c1n[nH]c(NC(=O)/C=C/c2ccc(Cl)cc2)n1)C(=O)N[C@@H](Cc1ccccc1)C(N)=O |
| 8.5 | N=C(N)NCCC[C@H](NC(=O)[C@H](CC1CCCCC1)NC(=O)c1n[nH]c(NC(=O)/C=C/c2cccc([N+](=O)[O-])c2)n1)C(=O)N[C@@H](Cc1ccccc1)C(N)=O |
| 3 | N=C(N)NCCC[C@H](NC(=O)[C@H](CC1CCCCC1)NC(=O)c1cc2ccccc2o1)C(=O)N[C@@H](Cc1ccccc1)C(N)=O |

biological target: T2, Proteinase-activated receptor 1; test: Inhibition of [3H]S-(p-F-Phe)-Har-L-Har-KY-NH2 binding to thrombin receptor (PAR-1) on membranes from CHRF cells; type: cell membranes

| Structure (SMILES) | IC50 [µM] |
| --- | --- |
| N=C(N)NCCC[C@H](NC(=O)[C@H](CC1CCCCC1)NC(=O)c1cc(=O)c2ccccc2o1)C(=O)N[C@@H](Cc1ccccc1)C(N)=O | 1.6 |
| N=C(N)NCCC[C@H](NC(=O)[C@H](CC1CCCCC1)NC(=O)/C=C/c1ccccc1)C(=O)N[C@@H](Cc1ccccc1)C(N)=O | 5 |
| N=C(N)NCCC[C@H](NC(=O)[C@H](CC1CCCCC1)NC(=O)c1ccc(N)cc1)C(=O)N[C@@H](Cc1ccccc1)C(N)=O (H-[4Abz][Cha]RF-NH2) | 2.9 |
| N=C(N)NCCC[C@H](NC(=O)[C@H](CC1CCCCC1)NC(=O)C1=COc2ccccc2O1)C(=O)N[C@@H](Cc1ccccc1)C(N)=O | 16 |
| N=C(N)NCCC[C@H](NC(=O)[C@H](CC1CCCCC1)NC(=O)c1ccncc1)C(=O)N[C@@H](Cc1ccccc1)C(N)=O | 7 |
| N=C(N)NCCC[C@H](NC(=O)[C@H](CC1CCCCC1)NC(=O)C1C=CC=NC1=O)C(=O)N[C@@H](Cc1ccccc1)C(N)=O (stereo partly specified) | 16 |
| N=C(N)NCCC[C@H](NC(=O)[C@H](CC1CCCCC1)NC(=O)c1ccoc1)C(=O)N[C@@H](Cc1ccccc1)C(N)=O | 25 |

Second part, the molecule after the results:

| IC50 [µM] | Structure (SMILES) |
| --- | --- |
| 18 | C[C@H](NC(=O)[C@H](CC1CCCCC1)NC(=O)c1n[nH]c(N)n1)C(=O)N[C@@H](Cc1ccccc1)C(N)=O |
| 10 | N=C(N)NCCC[C@H](NC(=O)[C@H](CC1CCCCC1)NC(=O)c1ccc[nH]1)C(=O)N[C@@H](Cc1ccccc1)C(N)=O |
| 13 | N=C(N)NCCC[C@H](NC(=O)[C@H](CC1CCCCC1)NC(=O)c1ccc(-c2ccccc2)cc1)C(=O)N[C@@H](Cc1ccccc1)C(N)=O |
| 27 | N=C(N)NCCC[C@H](NC(=O)[C@H](CC1CCCCC1)NC(=O)c1n[nH]c(N)n1)C(=O)N[C@@H](Cc1c[nH]cn1)C(N)=O |
| 56 | N=C(N)NCCC[C@H](NC(=O)[C@H](CC1CCCCC1)NC(=O)c1cc2ccccc2[nH]1)C(=O)N[C@@H](Cc1ccccc1)C(N)=O |
| 7.6 | N=C(N)NCCC[C@H](NC(=O)[C@H](CC1CCCCC1)NC(=O)c1cccnc1Cl)C(=O)N[C@@H](Cc1ccccc1)C(N)=O |
| 46 | C[C@H](NC(=O)c1n[nH]c(N)n1)C(=O)N[C@@H](CCCN=C(N)N)C(=O)N[C@@H](Cc1ccccc1)C(N)=O |

organism: Homo sapiens; test: Antagonist activity by using human gel-filtered platelet aggregation; type: functional

| IC50 [µM] | Structure (SMILES) |
| --- | --- |
| 9.8 | N=C(N)NCCC[C@H](NC(=O)[C@H](CC1CCCCC1)NC(=O)c1n[nH]c(NC(=O)/C=C/c2ccccc2)n1)C(=O)N[C@@H](Cc1ccccc1)C(N)=O |
| 3.6 | N=C(N)NCCC[C@H](NC(=O)[C@H](CC1CCCCC1)NC(=O)c1n[nH]c(NC(=O)/C=C/c2ccccc2Cl)n1)C(=O)N[C@@H](Cc1ccccc1)C(N)=O |
